Test results reported in patent US11091511B2, “Panaxdiol-type ginsenoside derivative, preparation method therefor and use thereof” (ARMY MEDICAL UNIVERSITY, priority 2016, dated 2021).
Marks after values point to notes of the source that are not given here.

Assays:
[1] = system: RAW264.7 cells; assay: RAW264.7 cell survival rate by CCK8 method; format: cell-based, mouse; conditions: compound 10 prnol/L, 0.1% DMSO, CCK8, x ± s, n = 3, normal saline control = 1
In short: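 Mouse macrophage RAW264.7 cells exposed to compounds at 10 […] in medium containing 0.1% DMSO final, alongside a 0.1% DMSO saline control. Survival measured by CCK8, given as x±s, with groups compared by one-way ANOVA (p<0.05).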

[2] = system: TNF-α; assay: Local TNF-α level in the arteries of apoE-/- mice (Millipore liquid phase chip); format: in vivo, mouse; conditions: high-fat diet, intragastric 15 weeks, compounds 30 mg/(kg·d), simvastatin 10 mg/(kg·d), x ± s, n = 5, saline control 25.58 ± 6.44
In short: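 Male apoE−/− mice on a high-fat diet (0.15% cholesterol, 21% lard) for 25 weeks received compound at 30 mg/(kg·d) intragastrically from week 10 for 15 weeks (n=5). Arterial TNF-α was then measured with a magnetic bead cytokine panel. Groups were compared by one-way ANOVA.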

[3] = system: apoE−/− mice; assay: Atherosclerotic plaque area to total aortic area in apoE-/- mice on high-fat diet (Sudan IV staining); format: in vivo, mouse; conditions: intragastric 15 weeks, compounds 30 mg/(kg·d), simvastatin 10 mg/(kg·d), x ± s, n = 5, saline control 14.67 ± 3.58
In short: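 Male apoE−/− mice, 10 weeks old, ate a high-fat diet (0.15% cholesterol, 21% lard) for 25 weeks and received compounds intragastrically at 30 mg/(kg·d) for 15 weeks from week 10 (n=5). Aortas from root to abdominal bifurcation were formalin-fixed and Sudan IV-stained. Lesion area was expressed as percent of total aortic area.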

[4] = system: RAW264.7 cell-derived foam cells; assay: Formation of RAW264.7 cell-derived foam cells (ox-LDL, oil red O, absorbance 490 nm); format: cell-based, mouse; conditions: 48 hours, model group = 100%, x ± s, n = 3
In short: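 RAW264.7 foam cells, induced with 60 mg/L ox-LDL for 48 h, were treated 48 h with compound at 10 or 30 μmol/L in saline, in triplicate wells. Lipid was stained with oil red O, extracted in isopropanol and read at 490 nm. Values are cell-number-corrected lipid content as % of the model group.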

[5] = system: apoE−/− mice; assay: Blood lipids (LDL-C, HDL-C) in apoE-/- mice on high-fat diet; format: in vivo, mouse; conditions: apoE-/- mice serum, intragastric 15 weeks, compounds 30 mg/(kg·d), simvastatin 10 mg/(kg·d), x ± s; for HDL-C: n = 5, saline control 3.74 ± 0.62; for LDL-C: n = 5, saline control 7.33 ± 1.03
In short: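 Male apoE−/− mice (ten weeks old) on high-fat diet (0.15% cholesterol, 21% lard) for 25 weeks; from week 10, compounds given intragastrically at 30 mg/(kg·d) for 15 weeks (n=5). Serum TC, LDL-C and HDL-C measured on an automatic biochemical analyzer; one-way ANOVA, p<0.05.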

Compound | Cell Survival Rate [1] | TNF-α level (ng/g) [2] | Plaque area/total aorta area (%) [3] | Foam cell formation (%) ([4]; dose 10 μmol/L) | Foam cell formation (%) ([4]; dose 30 μmol/L) | HDL-C [5] | LDL-C [5]
CCOC(=O)CCNCCC[C@](C)(OC(C)=O)C1CC[C@]2(C)[C@@H]1C(OC(C)=O)CC1[C@@]3(C)CC[C@H](OC(C)=O)C(C)(C)C3CC[C@]12C (stereo partly drawn) [Compound 25] | 0.98 ± 0.07 | 11.65 ± 5.45 ^a ng/g | 8.33 ± 2.44 ^a % | 62 ± 18 ^a % | 44 ± 15 ^a % | 5.14 ± 0.87 ^a mmol/L | 4.82 ± 1.54 ^a mmol/L
CCOC(=O)C(NCCCCC[C@](C)(OC(C)=O)C1CC[C@]2(C)[C@@H]1C(OC(C)=O)CC1[C@@]3(C)CC[C@H](OC(C)=O)C(C)(C)C3CC[C@]12C)C(C)OCC (stereo partly drawn) [Compound 26] | 0.94 ± 0.05 | 16.02 ± 3.11 ^a ng/g | 9.78 ± 3.17 ^a % | 83 ± 21% | 72 ± 18 ^a % | 4.45 ± 0.62 ^a mmol/L | 6.28 ± 0.84 mmol/L
COC(=O)[C@H](Cc1ccccc1)NCCC[C@](C)(OC(C)=O)C1CC[C@]2(C)[C@@H]1C(OC(C)=O)CC1[C@@]3(C)CC[C@H](OC(C)=O)C(C)(C)C3CC[C@]12C (stereo partly drawn) [Compound 27] | 0.87 ± 0.04 | 17.95 ± 2.15 ^a ng/g | 10.65 ± 3.82 ^a % | 76 ± 12 ^a % | 65 ± 18 ^a % | 4.37 ± 0.56 ^a mmol/L | 5.55 ± 1.06 ^a mmol/L
COC(=O)[C@@H](Cc1ccc(O)cc1)NCCC[C@](C)(OC(C)=O)C1CC[C@]2(C)[C@@H]1C(OC(C)=O)CC1[C@@]3(C)CC[C@H](OC(C)=O)C(C)(C)C3CC[C@]12C (stereo partly drawn) [Compound 28] | 0.89 ± 0.04 | 11.84 ± 2.91 ^a ng/g | 8.18 ± 2.89 ^a % | 63 ± 11 ^a % | 45 ± 16 ^a % | 5.55 ± 0.63 ^a mmol/L | 4.59 ± 1.62 ^a mmol/L
COC(=O)[C@H](Cc1c[nH]cn1)NCCC[C@](C)(OC(C)=O)C1CC[C@]2(C)[C@@H]1C(OC(C)=O)CC1[C@@]3(C)CC[C@H](OC(C)=O)C(C)(C)C3CC[C@]12C (stereo partly drawn) [Compound 29] | 1.00 ± 0.16 | 14.93 ± 3.67 ^a ng/g | 9.67 ± 2.51 ^a % | 85 ± 10% | 72 ± 18 ^a % | 4.10 ± 0.78 ^a mmol/L | 6.27 ± 1.59 mmol/L
COC(=O)[C@H](Cc1c[nH]c2ccccc12)NCCC[C@](C)(OC(C)=O)C1CC[C@]2(C)[C@@H]1C(OC(C)=O)CC1[C@@]3(C)CC[C@H](OC(C)=O)C(C)(C)C3CC[C@]12C (stereo partly drawn) [Compound 30] | 0.95 ± 0.09 | 16.11 ± 4.19 ^a ng/g | 9.99 ± 3.68 ^a % | 78 ± 12 ^a % | 64 ± 13 ^a % | 4.42 ± 0.57 ^a mmol/L | 6.37 ± 0.75 mmol/L
